How the values were obtained:
Type in all cases: in vivo
[1] = system: blackgrass (Alopecurus myosuroides); test: Test C greenhouse herbicide test, pre- and postemergence
From the text: (§1) Seeds of plant species selected from blackgrass (Alopecurus myosuroides), ryegrass, Italian (Italian ryegrass, Lolium multiflorum), wheat (winter wheat, Triticum aestivum), galium (catchweed bedstraw, Galium aparine), corn (Zea mays), large crabgrass, large (large crabgrass, Digitaria sanguinalis), foxtail, giant (giant foxtail, Setaria faberii), johnsongrass (Sorghum halepense), lambsquarters (Chenopodium album), morningglory (Ipomoea coccinea), nutsedge, yellow (yellow nutsedge, Cyperus esculentus), pigweed (Amaranthus retroflexus), ragweed (common ragweed, Ambrosia elatior), soybean (Glycine max), barnyardgrass (Echinochloa crus-galli), oilseed rape (Brassica napus), waterhemp (common waterhemp, Amaranthus rudis), and velvetleaf (Abutilon theophrasti) were planted into a blend of loam soil and sand and treated preemergence with test chemicals formulated in a non-phytotoxic solvent mixture which included a surfactant.
(§2) At the same time, plants selected from these crop and weed species and also chickweed (common chickweed, Stellaria media), kochia (Kochia scoparia), and oat, wild (wild oat, Avena fatua), were planted in pots containing Redi-Earth® planting medium (Scotts Company, 14111 Scottslawn Road, Marysville, Ohio 43041) comprising spaghnum peat moss, vermiculite, wetting agent and starter nutrients and treated with postemergence applications of test chemicals formulated in the same manner. Plants ranged in height from 2 to 18 cm (1- to 4-leaf stage) for postemergence treatments. Treated plants and controls were maintained in a greenhouse for 13 to 15 d, after which time all species were compared to controls and visually evaluated. Plant response ratings, summarized in Table C, are based on a scale of 0 to 100 where 0 is no effect and 100 is complete control. A dash (-) response means no test result.

[2] = system: corn (Zea mays); test: as above
From the text: as §1, §2

[3] = system: crabgrass, large (large crabgrass, Digitaria sanguinalis); test: as above
From the text: as §1, §2

[4] = system: foxtail, giant (giant foxtail, Setaria faberii); test: as above
From the text: as §1, §2

[5] = system: johnsongrass (Sorghum halepense); test: as above
From the text: as §1, §2

[6] = system: lambsquarters (Chenopodium album); test: as above
From the text: as §1, §2

[7] = system: morningglory (Ipomoea coccinea); test: as above
From the text: as §1, §2

[8] = system: oilseed rape (Brassica napus); test: as above
From the text: as §1, §2

[9] = system: pigweed (Amaranthus retroflexus); test: as above
From the text: as §1, §2

[10] = system: ragweed (common ragweed, Ambrosia elatior); test: as above
From the text: as §1, §2

[11] = system: ryegrass, Italian (Italian ryegrass, Lolium multiflorum); test: as above
From the text: as §1, §2

[12] = system: soybean (Glycine max); test: as above
From the text: as §1, §2

[13] = system: velvetleaf (Abutilon theophrasti); test: as above
From the text: as §1, §2

[14] = system: waterhemp (common waterhemp, Amaranthus rudis); test: as above
From the text: as §1, §2

[15] = system: kochia (Kochia scoparia); test: Test C greenhouse herbicide test, postemergence
From the text: as §2

[16] = system: oat, wild (wild oat, Avena fatua); test: Test C greenhouse herbicide test, postemergence
From the text: as §2

[17] = Postemergence, 31 g ai/ha, 0 to 100 scale (0 no effect, 100 complete control)
[18] = Postemergence, 125 g ai/ha, scale 0 to 100, 0 is no effect, 100 is complete control
[19] = Postemergence, 250 g ai/ha, scale 0 to 100, 0 no effect, 100 complete control, 13 to 15 d
[20] = Preemergence, 31 g ai/ha, scale 0 to 100, 0 is no effect, 100 is complete control
[21] = Preemergence, 62 g ai/ha, scale 0 to 100, 0 is no effect, 100 is complete control
[22] = Preemergence, 125 g ai/ha, scale 0 to 100, 0 is no effect, 100 is complete control
[23] = Preemergence, 250 g ai/ha, scale 0 to 100 (0 no effect, 100 complete control)
[24] = postemergence, 62 g ai/ha, scale 0 to 100, 0 no effect, 100 complete control

Cc1ccc2sc(C)c(-c3c(O)c(C)nn(C)c3=O)c2c1 [Compound 1, 4-(2,5-dimethylbenzo[b]thien-3-yl)-5-hydroxy-2,6-dimethyl-3(2H)-pyridazinone]
98: Plant response rating, Pigweed [9, 18] | Ragweed plant response rating [10, 23] | Plant response rating, Ryegrass, Italian [11, 19] | Velvetleaf plant response rating [13, 23]
20: Blackgrass plant response rating [1, 17] | Crabgrass, Large plant response rating [3, 17] | Oilseed Rape plant response rating [8, 23]
40: Plant response rating, Corn [2, 19] | Plant response rating, Crabgrass, Large [3, 21] | Plant response rating, Oilseed Rape [8, 19]
60: Plant response rating, Blackgrass [1, 18] | Plant response rating, Blackgrass [1, 20] | Plant response rating, Foxtail, Giant [4, 18]
25: Corn plant response rating [2, 24] | Plant response rating, Crabgrass, Large [3, 18]
0: Corn plant response rating [2, 17] | Plant response rating, Corn [2, 20] | Plant response rating, Corn [2, 21] | Plant response rating, Corn [2, 22] | Johnsongrass plant response rating [5, 17] | Plant response rating, Johnsongrass [5, 18] | Plant response rating, Johnsongrass [5, 20] | Johnsongrass plant response rating [5, 24] | Oilseed Rape plant response rating [8, 17] | Plant response rating, Oilseed Rape [8, 20] | Oilseed Rape plant response rating [8, 24] | Soybean plant response rating [12, 17] | Plant response rating, Soybean [12, 21] | Plant response rating, Soybean [12, 22] | Soybean plant response rating [12, 23] | Soybean plant response rating [12, 24]
75: Plant response rating, Blackgrass [1, 19] | Plant response rating, Foxtail, Giant [4, 21]
95: Plant response rating, Lambsquarters [6, 21] | Plant response rating, Morningglory [7, 20] | Pigweed plant response rating [9, 17] | Pigweed plant response rating [9, 24] | Plant response rating, Ragweed [10, 18] | Plant response rating, Ragweed [10, 19] | Ragweed plant response rating [10, 24] | Plant response rating, Ryegrass, Italian [11, 18] | Plant response rating, Ryegrass, Italian [11, 20] | Plant response rating, Velvetleaf [13, 18] | Waterhemp plant response rating [14, 17] | Waterhemp plant response rating [14, 24] | Kochia plant response rating [15, 17] | Plant response rating, Kochia [15, 18] | Kochia plant response rating [15, 24]
80: Plant response rating, Crabgrass, Large [3, 22] | Plant response rating, Lambsquarters [6, 20] | Plant response rating, Ragweed [10, 21] | Ryegrass, Italian plant response rating [11, 17] | Velvetleaf plant response rating [13, 17]
100: Crabgrass, Large plant response rating [3, 23] | Plant response rating, Foxtail, Giant [4, 22] | Foxtail, Giant plant response rating [4, 23] | Plant response rating, Lambsquarters [6, 18] | Plant response rating, Lambsquarters [6, 19] | Plant response rating, Lambsquarters [6, 22] | Lambsquarters plant response rating [6, 23] | Lambsquarters plant response rating [6, 24] | Morningglory plant response rating [7, 17] | Plant response rating, Morningglory [7, 18] | Plant response rating, Morningglory [7, 19] | Plant response rating, Morningglory [7, 21] | Plant response rating, Morningglory [7, 22] | Morningglory plant response rating [7, 23] | Morningglory plant response rating [7, 24] | Plant response rating, Pigweed [9, 19] | Plant response rating, Pigweed [9, 20] | Plant response rating, Pigweed [9, 21] | Plant response rating, Pigweed [9, 22] | Pigweed plant response rating [9, 23] | Plant response rating, Ragweed [10, 22] | Plant response rating, Ryegrass, Italian [11, 21] | Plant response rating, Ryegrass, Italian [11, 22] | Ryegrass, Italian plant response rating [11, 23] | Plant response rating, Velvetleaf [13, 19] | Plant response rating, Velvetleaf [13, 22] | Plant response rating, Waterhemp [14, 18] | Plant response rating, Waterhemp [14, 19] | Plant response rating, Waterhemp [14, 21] | Plant response rating, Waterhemp [14, 22] | Waterhemp plant response rating [14, 23] | Plant response rating, Kochia [15, 19] | Plant response rating, Oat, Wild [16, 19]
5: Plant response rating, Corn [2, 18] | Corn plant response rating [2, 23] | Plant response rating, Johnsongrass [5, 21] | Plant response rating, Johnsongrass [5, 22] | Johnsongrass plant response rating [5, 23] | Plant response rating, Oilseed Rape [8, 18] | Plant response rating, Oilseed Rape [8, 21] | Plant response rating, Soybean [12, 18] | Plant response rating, Soybean [12, 19]
85: Lambsquarters plant response rating [6, 17] | Velvetleaf plant response rating [13, 24] | Plant response rating, Oat, Wild [16, 18]
10: Crabgrass, Large plant response rating [3, 24]
90: Plant response rating, Blackgrass [1, 21] | Plant response rating, Blackgrass [1, 22] | Blackgrass plant response rating [1, 23] | Plant response rating, Foxtail, Giant [4, 19] | Ragweed plant response rating [10, 17] | Plant response rating, Ragweed [10, 20] | Ryegrass, Italian plant response rating [11, 24] | Plant response rating, Velvetleaf [13, 21]
35: Plant response rating, Crabgrass, Large [3, 19] | Plant response rating, Crabgrass, Large [3, 20] | Foxtail, Giant plant response rating [4, 17]
70: Oat, Wild plant response rating [16, 24]
55: Plant response rating, Foxtail, Giant [4, 20]
50: Blackgrass plant response rating [1, 24] | Oat, Wild plant response rating [16, 17]
15: Foxtail, Giant plant response rating [4, 24] | Plant response rating, Johnsongrass [5, 19]

Reference: patent US10597388B2, “Pyridazinone herbicides” (FMC CORPORATION, priority 2014, dated 2020)
